Data as given in patent publication US12673947B2 (Cytosinlab Therapeutics Co., Ltd., priority 2020, dated 2026).

Key:
FLT3 = target: T1, FLT3 (Homo sapiens, UniProt P36888); assay: FLT3 kinase in vitro inhibitory activity experiment (Caliper mobility shift, conversion rate); type: biochemical; settings: IC50 class, read-out: Enzyme activity FLT3
T1 construct: purchased Carna 08-145
T1 sequence (P36888 27-993): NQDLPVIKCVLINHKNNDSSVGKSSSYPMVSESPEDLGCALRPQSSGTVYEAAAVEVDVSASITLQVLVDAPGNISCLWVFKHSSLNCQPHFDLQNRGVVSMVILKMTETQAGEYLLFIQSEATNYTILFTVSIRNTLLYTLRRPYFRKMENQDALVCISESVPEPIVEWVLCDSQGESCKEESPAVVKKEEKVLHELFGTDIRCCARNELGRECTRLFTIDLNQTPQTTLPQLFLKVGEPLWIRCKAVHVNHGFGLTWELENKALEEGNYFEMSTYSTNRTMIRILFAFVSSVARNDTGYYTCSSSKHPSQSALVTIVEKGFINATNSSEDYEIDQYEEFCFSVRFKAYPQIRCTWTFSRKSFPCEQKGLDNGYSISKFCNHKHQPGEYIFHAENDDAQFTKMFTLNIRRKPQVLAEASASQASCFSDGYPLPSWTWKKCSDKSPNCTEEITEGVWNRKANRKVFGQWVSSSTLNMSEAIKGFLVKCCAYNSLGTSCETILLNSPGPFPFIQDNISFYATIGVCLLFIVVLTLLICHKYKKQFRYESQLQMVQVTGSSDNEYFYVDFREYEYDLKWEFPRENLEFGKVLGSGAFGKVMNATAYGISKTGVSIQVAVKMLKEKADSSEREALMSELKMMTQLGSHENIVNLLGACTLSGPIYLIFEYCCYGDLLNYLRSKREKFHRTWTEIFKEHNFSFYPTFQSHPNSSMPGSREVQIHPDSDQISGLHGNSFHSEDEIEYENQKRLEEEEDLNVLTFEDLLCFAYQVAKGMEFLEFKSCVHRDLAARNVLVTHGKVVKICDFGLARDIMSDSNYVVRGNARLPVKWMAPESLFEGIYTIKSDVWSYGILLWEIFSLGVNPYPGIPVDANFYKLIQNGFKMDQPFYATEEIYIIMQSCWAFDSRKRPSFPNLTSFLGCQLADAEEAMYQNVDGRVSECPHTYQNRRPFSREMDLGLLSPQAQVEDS
How it was run: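 Tested in single wells as ten 3-fold dilutions of a 1 μM initial stock. Compound and FLT3 stood 10 min at room temperature; ATP with Kinase substrate 2 was then added for 30 min at room temperature and the reaction stopped. Conversion was measured by Caliper mobility shift, and inhibition was normalised to control-well conversion.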

MV4;11 cells = assay: MV4;11 in vitro inhibition of proliferation assay (CellTiter-Glo, 72 hours); type: cell-based; settings: Homo sapiens, MV4-11, 72 h, IC50 class, read-out: Inhibitory activity of cell proliferation MV4;11
How it was run: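 IC50 came from four-parameter fitting of inhibition rates, based on CellTiter-Glo luminescence after 72 hours at 37° C. Each well held 2000 MV4;11 cells grown in IMDM with 10% serum. Compounds formed a nine-point, threefold DMSO series starting at 10 uM, tested in triplicate at 0.3% final DMSO.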

Row | Compound | IC50 (FLT3) [nM] | IC50 (MV4;11 cells) [nM]
1 | CCc1nc2c(N)ncc(-c3ccc(N4CCC(N5C6CCC5CN(C)C6)CC4)c(OC)c3)c2nc1NC1CCOCC1 [Compound 327, 3-ethyl-8-(3-methoxy-4-(4-(3-methyl-3,8-diazabicyclo[3.2.1]octyl-8-yl)piperidin-1-yl)phenyl)-N2-(tetrahydro-2H-pyran-4-yl)pyridino[3,4-b]pyrazine-2,5-diamine] | ≤ 10 | 10 to 100
2 | CCc1nc2c(N)ncc(-c3ccc(N4CCC(N5CCC(C)(O)CC5)CC4)c(OC)c3)c2nc1NC1CCOCC1 [Compound 328] | ≤ 10 | 10 to 100
3 | CCc1nc2c(N)ncc(-c3cnn(-c4ccc(C(C)(C)O)nc4)c3)c2nc1N[C@@H]1CC[C@H](O)C1 [Compound 329] | ≤ 10 | ≤ 10
4 | CCc1nc2c(N)ncc(-c3cnn(-c4ncc(C(C)(C)O)cn4)c3)c2nc1N[C@@H]1CC[C@H](O)C1 [Compound 330] | ≤ 10 | 10 to 100
5 | CCc1nc2c(N)ncc(-c3cnn(-c4cnc(C(C)(C)O)nc4)c3)c2nc1N[C@@H]1CC[C@H](O)C1 [Compound 331] | ≤ 10 | ≤ 10
6 | CCc1nc2c(N)ncc(-c3cnn(-c4ccc(C(C)(C)O)cc4)c3)c2nc1N[C@@H]1CC[C@H](O)C1 [Compound 333] | ≤ 10 | ≤ 10
7 | CCc1nc2c(N)ncc(-c3cnn(-c4ccc(C#N)cc4)c3)c2nc1N[C@@H]1CC[C@H](O)C1 [Compound 336] | ≤ 10 | ≤ 10
8 | CCc1nc2c(N)ncc(-c3cnn(-c4ccc(C#N)nn4)c3)c2nc1N[C@@H]1CC[C@H](O)C1 [Compound 337] | ≤ 10 | 10 to 100
9 | CCc1nc2c(N)ncc(-c3cnn(-c4cnc(C#N)nc4)c3)c2nc1N[C@@H]1CC[C@H](O)C1 [Compound 338] | ≤ 10 | ≤ 10
10 | CCc1nc2c(N)ncc(-c3cnn(-c4cnc(C#N)cn4)c3)c2nc1N[C@@H]1CC[C@H](O)C1 [Compound 339] | ≤ 10 | 10 to 100
11 | CCc1nc2c(N)ncc(-c3cnn(-c4ncc(F)cn4)c3)c2nc1N[C@@H]1CC[C@H](O)C1 [Compound 341] | ≤ 10 | ≤ 10
12 | CCc1nc2c(N)ncc(-c3cnn(-c4ccnc(Cl)c4)c3)c2nc1N[C@@H]1CC[C@H](O)C1 [Compound 345] | ≤ 10 | ≤ 10
13 | CCc1nc2c(N)ncc(-c3cnn(-c4ncc(C#N)cn4)c3)c2nc1NC1CCOCC1 [Compound 346] | ≤ 10 | 10 to 100
14 | CCc1nc2c(N)ncc(-c3cnn(-c4ccc(C(C)(C)O)nc4)c3)c2nc1NC1CCOCC1 [Compound 347] | ≤ 10 | 10 to 100
15 | CCc1nc2c(N)ncc(-c3cnn(-c4cnc(C(C)(C)O)nc4)c3)c2nc1NC1CCOCC1 [Compound 349] | ≤ 10 | 10 to 100
16 | CCc1nc2c(N)ncc(-c3cnn(-c4ccc(CNC)cc4)c3)c2nc1NC1CCOCC1 [Compound 350] | ≤ 10 | ≤ 10
17 | CCc1nc2c(N)ncc(-c3cnn(-c4nccc(C(C)(C)O)n4)c3)c2nc1N[C@@H]1CC[C@H](O)C1 [Compound 352] | ≤ 10 | 10 to 100
18 | CCc1nc2c(N)ncc(-c3cnn(-c4ccc(C#N)c(F)c4)c3)c2nc1N[C@@H]1CC[C@H](O)C1 [Compound 353] | ≤ 10 | 10 to 100
19 | CCc1nc2c(N)ncc(-c3cnn(-c4ccc(C(C)(C)O)nn4)c3)c2nc1N[C@@H]1CC[C@H](O)C1 [Compound 354] | ≤ 10 | 10 to 100
20 | CCc1nc2c(N)ncc(-c3ccc(NCCNC(=O)[C@H](C)N(C)C(=O)/C=C/CN(C)C)c(OC)c3)c2nc1NC1CCOCC1 [Compound 358, (S,E)-N-(1-((2-((4-(5-amino-3-ethyl-2-((tetrahydro-2H-pyran-4-yl)amino)pyridino[3,4b]pyrazine-8-yl)-2-methoxyphenyl)amino)ethyl)amino)-1-oxopropane-2-yl)-4-(dimethylamino)-N-methylbutyl-2-enamide] | 10 to 100 | 100 to 500

The remaining lines, values ahead:

Row | IC50 (FLT3) [nM] | IC50 (MV4;11 cells) [nM] | Compound
21 | ≤ 10 | ≤ 10 | CCc1nc2c(N)ncc(-c3cnn(-c4cnc(C(C)(C)O)cn4)c3)c2nc1N[C@@H]1CC[C@H](O)C1 [Compound 332]
22 | ≤ 10 | ≤ 10 | CCc1nc2c(N)ncc(-c3cnn(-c4ncc(C#N)cn4)c3)c2nc1N[C@@H]1CC[C@H](O)C1 [Compound 335]
23 | ≤ 10 | 10 to 100 | CCc1nc2c(N)ncc(-c3cnn(-c4ccc(C(F)F)nc4)c3)c2nc1N[C@@H]1CC[C@H](O)C1 [Compound 340]
24 | ≤ 10 | 10 to 100 | CCc1nc2c(N)ncc(-c3cnn(-c4ccc(F)c(F)c4)c3)c2nc1N[C@@H]1CC[C@H](O)C1 [Compound 342]
25 | ≤ 10 | ≤ 10 | CCc1nc2c(N)ncc(-c3cnn(-c4ccnc(F)c4)c3)c2nc1N[C@@H]1CC[C@H](O)C1 [Compound 343]
26 | ≤ 10 | ≤ 10 | CCc1nc2c(N)ncc(-c3cnn(-c4ncc(OC(C)C)cn4)c3)c2nc1N[C@@H]1CC[C@H](O)C1 [Compound 344]
27 | ≤ 10 | 10 to 100 | CCc1nc2c(N)ncc(-c3cnn(-c4ncc(C(C)(C)O)cn4)c3)c2nc1NC1CCOCC1 [Compound 348]
28 | ≤ 10 | 10 to 100 | CCc1nc2c(N)ncc(-c3cnn(-c4ccc(C(C)(C)C)cc4)c3)c2nc1N[C@@H]1CC[C@H](O)C1 [Compound 351]
29 | ≤ 10 | ≤ 10 | CCc1nc2c(N)ncc(-c3cnn(-c4ccc(C(C)(C)O)c(F)c4)c3)c2nc1N[C@@H]1CC[C@H](O)C1 [Compound 355]
30 | ≤ 10 | 10 to 100 | CCc1nc2c(N)ncc(-c3cnn(-c4cnc(C(C)(C)O)nc4)c3)c2nc1N[C@@H]1CC[C@@H](O)C1 [Compound 356]
31 | ≤ 10 | ≤ 10 | CCc1nc2c(N)ncc(-c3cnn(-c4ccc5c(c4)CCO5)c3)c2nc1N[C@@H]1CC[C@H](O)C1 [Compound 357]
